# Reference: US20210161994A1, “IMPLANTABLE DEVICE FOR THE DELIVERY OF OCTREOTIDE AND METHODS OF USE THEREOF” (Endo Pharmaceuticals Solutions Inc., priority 2008, published 2021)
# What was measured:
# [1] = Log P (partition coefficient); assay type: physicochemical
# Text: (§1) Tables 2A-D show release rates of octreotide from three different classes of polyurethane compounds (Tecophilic®, Tecoflex® and Carbothane®). The release rates have been normalized to surface area of the implant, thereby adjusting for slight differences in the size of the various implantable devices. Octreotide is water-soluble as indicated by the Log P value; for the purposes of the data provided, a Log P value of greater than about 2.0 is considered to be not readily soluble in aqueous solution. The polyurethanes were selected to have varying affinities for water soluble active agents and varying flexibility (as indicated by the variation in flex modulus).
# The solubility of an active agent in an aqueous environment can be measured and predicted based on its partition coefficient (defined as the ratio of concentration of compound in aqueous phase to the concentration in an immiscible solvent). The partition coefficient (P) is a measure of how well a substance partitions between a lipid (oil) and water. The measure of solubility based on P is often given as Log P. In general, solubility is determined by Log P and melting point (which is affected by the size and structure of the compounds). Typically, the lower the Log P value, the more soluble the compound is in water. […]
# [2] = Release rate of octreotide from polyurethane implantable devices; assay type: physicochemical; details: Tecophilic HP-60D-05, 5.5% EWC
# Text: as §1
# Polyurethanes are available or can be prepared, for example, with a range of EWCs or flex moduli (Table 2). Tables 2A-B show normalized release rates for various active ingredients from polyurethane compounds. Tables […] show the non-normalized release rates for the same active ingredients, together with implant composition.
compound,measurement,setting,value
C[C@@H](O)[C@@H]1NC(=O)[C@H](CCCCN)NC(=O)[C@@H](Cc2c[nH]c3ccccc23)NC(=O)[C@H](Cc2ccccc2)NC(=O)[C@@H](NC(=O)[C@H](N)Cc2ccccc2)CSSC[C@@H](C(=O)N[C@H](CO)[C@@H](C)O)NC1=O [Octreotide Acetate],logP,[1],0.43
same,non-normalized release rate,[2],0
same,release rate normalized to surface area of the implant,"[2]; 10% HPC, 2% SA, 50 mg API",0
